From patent US9765074B2, “Inhibitors of the renal outer medullary potassium channel” (Merck Sharp & Dohme Corp., priority 2013, dated 2017)

Target: T1, hROMK (hKir1.1) (Homo sapiens, UniProt P48048)
T1 construct: expressed in transfected cells
T1 sequence (P48048 1-391): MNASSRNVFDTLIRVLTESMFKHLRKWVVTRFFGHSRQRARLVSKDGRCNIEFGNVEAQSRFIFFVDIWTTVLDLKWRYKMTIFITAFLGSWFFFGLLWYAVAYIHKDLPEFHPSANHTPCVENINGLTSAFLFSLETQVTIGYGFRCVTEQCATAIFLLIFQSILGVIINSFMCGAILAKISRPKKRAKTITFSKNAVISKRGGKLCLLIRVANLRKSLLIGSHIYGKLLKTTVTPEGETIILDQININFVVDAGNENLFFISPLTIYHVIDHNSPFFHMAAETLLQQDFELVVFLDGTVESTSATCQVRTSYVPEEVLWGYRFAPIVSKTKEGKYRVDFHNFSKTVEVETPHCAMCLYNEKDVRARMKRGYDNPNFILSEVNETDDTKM
Assay: Thallium Flux Assay (ROMK channel functional thallium flux, FLIPR-Tetra)
Type: cell-based
Conditions: HEK293 cells stably expressing hROMK (hKir1.1); 30 min compound incubation
Experimental: The following Thallium Flux Assay was performed on each of the final product compounds in the Examples.
Cell Culture Conditions—HEK293 cells stably expressing hROMK (hKir1.1) were grown at 37° C. in a 10% CO2 humidified incubator in complete growth media: Dulbecco's Modified Eagle Medium supplemented with non-essential amino acids, Penicillin/Streptomycin/Glutamine, G418 and FBS. At >80% confluency, aspirate the media from the flask and rinse with 10 mL Calcium/Magnesium-free PBS. Add 5 mL of 1× trypsin (prepared in Ca/Mg Free PBS) to T-225 flask and return flask to 37° C./CO2 incubator for 2-3 minutes. To dislodge the cell, gently bang the side of the flask with your hand. Triturate the cells completely and then transfer the cells to 25 mL complete media. Centrifuge at 1,500 rpm for 6 min followed by resuspension in complete growth media and determine cell concentration. For typical re-seeding, 4E6 cells/T-225 flask will attain >80% confluency in 4 days. Under ideal growth conditions and appropriate tissue culture practices, this cell line is stable for 40-45 passages. FluxOR Kit Components (Invitrogen F10017) • FluxOR™ Reagent (Component A) • FluxOR™ Assay Buffer (Component B)—10× Concentrate • PowerLoad™ Concentrate (Component C)—100× Concentrate • Probenecid (Component D)—Lyophilized sample is kept at −20° C. Water soluble, 100× after solubilization in 1 mL water. Store at 4° C. • FluxOR™ Chloride-free Buffer (Component E)—5× Concentrate • Potassium sulfate (K2SO4) Concentrate (Component F)—125 mM in water. Store at 4° C. • Thallium sulfate (Tl2SO4) Concentrate (Component G)—50 mM in water. Store at 4° C. • DMSO (dimethyl sulfoxide, Component H)—1 mL (100%) Reagent Preparation: FluxOR Working Solutions • 1000× FluxOR™ Reagent: Reconstitute a vial of component A in 100 μl DMSO; Mix well; Store 10 μl aliquots at −20° C. • 1× FluxOR™ Assay Buffer: Dilute Component B 10-fold with water; Adjust pH to 7.4 with Hepes/NaOH; Filter and store at 4° C. • Probenecid/Assay Buffer: 100 mL of 1× FluxOR™ Assay Buffer; 1 mL of reconstituted component D; Store at 4° C. • Loading Buffer (per microplate): 10 μl 1000× FluxOR™ Reagent; 100 μl component C; 10 mL Probenecid/Assay Buffer • Compound Buffer (per microplate): 20 mL Probenecid/Assay Buffer; 0.3 mM ouabain (10 mM ouabain in water can be stored in amber bottle/aluminum foil at room temperature); Test compound • 1× FluxOR™ Chloride-Free Buffer: Prepare 1× working solution in water. Can be stored at room temperature • Stimulant Buffer (prepared at 5× final concentration in 1× FluxOR™ Chloride-Free Buffer): 7.5 mM Thallium sulfate and 0.75 mM Potassium sulfate (to give a final assay concentration of 3 mM Thallium/0.3 mM Potassium). Store at 4° C. when not in use. If kept sterile, this solution is good for months. Assay Protocol—The ROMK channel functional thallium flux assay is performed in 384 wells, using the FLIPR-Tetra instrument. HEK-hKir1.1 cells are seeded in Poly-D-Lysine microplates and kept in a 37° C.-10% CO2 incubator overnight. On the day of the experiment, the growth media is replaced with the FluxOR™ reagent loading buffer and incubated, protected from light, at ambient temperature (23-25° C.) for 90 min. The loading buffer is replaced with assay buffer±test compound followed by 30 min incubation at ambient temperature, where the Thallium/Potassium stimulant is added to the microplate. Step Protocol • 1. Seed HEK-hKir1.1 cells (50 μl at 20,000 cells/well) in 384-well PDL coated Microplates • 2. Allow cells to adhere overnight in humidified 37° C./10% CO2 incubator • 3. Completely remove cell growth media from microplate and replace with 25 μl loading buffer • 4. Incubate Microplate at room temperature, protected form light, for 90 min • 5. Remove loading buffer and replace with 25 μl 1× Assay Buffer±test compound. • 6. Incubate microplate at room temperature, protected from light, for 30 min • 7. At FLIPR-Tetra 384: Add stimulant (Thallium/Potassium) solution to microplate and monitor fluorescence. […]

With `CC1=C(N2C(=O)C3(CCN(C[C@H](O)c4ccc(-n5cnnn5)nc4C)CC3)CC2C)COC1=O` (mixture of isomers) [Example 56, 8-{(2R)-2-hydroxy-2-[2-methyl-6-(1H-tetrazol-1-yl)pyridin-3-yl]ethyl}-3-methyl-2-(4-methyl-5-oxo-2,5-dihydrofuran-3-yl)-1-oxo-2-aza-8-azoniaspiro[4.5]decane] the IC50 was 0.02 µM.
For `CC1=C(N2C(=O)C3(CCN(C[C@H](O)c4ccc(-n5cnnn5)nc4C)CC3)CC2C)COC1=O` (mixture of isomers) [Example 57, 8-{(2R)-2-hydroxy-2-[2-methyl-6-(1H-tetrazol-1-yl)pyridin-3-yl]ethyl}-3-methyl-2-(4-methyl-5-oxo-2,5-dihydrofuran-3-yl)-1-oxo-2-aza-8-azoniaspiro[4.5]decane], the IC50 was 0.02 µM.
Molecule `CC1=C(N2C(=O)C3(CCN(C[C@@H](O)c4ccc(-n5cnnn5)nc4C)CC3)CC2C)COC1=O` (mixture of isomers) [Example 58, 8-{(2S)-2-hydroxy-2-[2-methyl-6-(1H-tetrazol-1-yl)pyridin-3-yl]ethyl}-3-methyl-2-(4-methyl-5-oxo-2,5-dihydrofuran-3-yl)-1-oxo-2-aza-8-azoniaspiro[4.5]decane] has an IC50 of 0.06 µM.
In the case of `CC1=C(N2C(=O)C3(CCN(C[C@@H](O)c4ccc(-n5cnnn5)nc4C)CC3)CC2C)COC1=O` (mixture of isomers) [Example 59, 8-{(2S)-2-hydroxy-2-[2-methyl-6-(1H-tetrazol-1-yl)pyridin-3-yl]ethyl}-3-methyl-2-(4-methyl-5-oxo-2,5-dihydrofuran-3-yl)-1-oxo-2-aza-8-azoniaspiro[4.5]decane], the IC50 is reported as 0.05 µM.
`Cc1nc(-n2cnnn2)cnc1C(O)CN1CCC2(CC1)C[C@H](C)N(C1=CC(=O)OC1)C2=O` (mixture of isomers) [Example 165, (3S)-8-{2-hydroxy-2-[3-methyl-5-(1H-tetrazol-1-yl)pyrazin-2-yl]ethyl}-3-methyl-2-(5-oxo-2,5-dihydrofuran-3-yl)-2,8-diazaspiro[4.5]decan-1-one] gave an IC50 of 0.01 µM.
For `Cc1nc(-n2cnnn2)cnc1C(O)CN1CCC2(CC1)C[C@H](C)N(C1=CC(=O)OC1)C2=O` (mixture of isomers) [Example 168, (3S)-8-{2-hydroxy-2-[3-methyl-5-(1H-tetrazol-1-yl)pyrazin-2-yl]ethyl}-3-methyl-2-(5-oxo-2,5-dihydrofuran-3-yl)-2,8-diazaspiro[4.5]decan-1-one], the IC50 was 0.01 µM.
Molecule `Cc1nc(-n2cnnn2)cnc1C(O)CN1CCC2(CC1)C[C@H](C)N(C1=CC(=O)OC1)C2=O` (mixture of isomers) [Example 169, (3S)-8-{2-hydroxy-2-[3-methyl-5-(1H-tetrazol-1-yl)pyrazin-2-yl]ethyl}-3-methyl-2-(5-oxo-2,5-dihydrofuran-3-yl)-2,8-diazaspiro[4.5]decan-1-one] has an IC50 of 0.01 µM.
`COC1CN(C2=CC(=O)OC2)C(=O)C12CCN(C[C@H](O)c1ccc(-n3cnnn3)nc1)CC2` (mixture of isomers) [Example 206, 8-((R)-2-(6-(1H-tetrazol-1-yl)pyridin-3-yl)-2-hydroxyethyl)-4-methoxy-2-(5-oxo-2,5-dihydrofuran-3-yl)-2,8-diazaspiro[4.5]decan-1-one] showed an IC50 of 0.05 µM.
`COC1CN(C2=CC(=O)OC2)C(=O)C12CCN(C[C@H](O)c1ccc(-n3cnnn3)nc1)CC2` (mixture of isomers) [Example 207, 8-((R)-2-(6-(1H-tetrazol-1-yl)pyridin-3-yl)-2-hydroxyethyl)-4-methoxy-2-(5-oxo-2,5-dihydrofuran-3-yl)-2,8-diazaspiro[4.5]decan-1-one] was tested, and the IC50 was 0.04 µM.
Work on `O=C1C=C(N2C(=O)C3(CCN(C[C@H](O)c4ccc(-n5cnnn5)nn4)CC3)CC2C2CC2)CO1` (mixture of isomers) [Example 210, 3-cyclopropyl-8-{(2S)-2-hydroxy-2-[6-(1H-tetrazol-1-yl)pyridazin-3-yl]ethyl}-2-(5-oxo-2,5-dihydrofuran-3-yl)-2,8-diazaspiro[4.5]decan-1-one] yielded an IC50 of 0.07 µM.
In the case of `O=C1C=C(N2C(=O)C3(CCN(C[C@H](O)c4ccc(-n5cnnn5)nn4)CC3)CC2C2CC2)CO1` (mixture of isomers) [Example 211, 3-cyclopropyl-8-{(2S)-2-hydroxy-2-[6-(1H-tetrazol-1-yl)pyridazin-3-yl]ethyl}-2-(5-oxo-2,5-dihydrofuran-3-yl)-2,8-diazaspiro[4.5]decan-1-one], the IC50 is reported as 0.04 µM.
Work on `O=C1C=C(N2C(=O)C3(CCN(C[C@H](O)c4cnc(-n5cnnn5)cn4)CC3)CC2C2CC2)CO1` (mixture of isomers) [Example 212, 3-cyclopropyl-8-{(2S)-2-hydroxy-2-[5-(1H-tetrazol-1-yl)pyrazin-2-yl]ethyl}-2-(5-oxo-2,5-dihydrofuran-3-yl)-2,8-diazaspiro[4.5]decan-1-one] yielded an IC50 of 0.12 µM.
`O=C1C=C(N2C(=O)C3(CCN(C[C@H](O)c4cnc(-n5cnnn5)cn4)CC3)CC2C2CC2)CO1` (mixture of isomers) [Example 213, 3-cyclopropyl-8-{(2S)-2-hydroxy-2-[5-(1H-tetrazol-1-yl)pyrazin-2-yl]ethyl}-2-(5-oxo-2,5-dihydrofuran-3-yl)-2,8-diazaspiro[4.5]decan-1-one] was tested, and the IC50 was 0.04 µM.
In the case of `O=C1C=C(N2C(=O)C3(CCN(C[C@H](O)c4ccc(-n5cnnn5)nc4)CC3)CC2C2CC2)CO1` (mixture of isomers) [Example 214, 3-cyclopropyl-8-{(2R)-2-hydroxy-2-[6-(1H-tetrazol-1-yl)pyridin-3-yl]ethyl}-2-(5-oxo-2,5-dihydrofuran-3-yl)-2,8-diazaspiro[4.5]decan-1-one], the IC50 is reported as 0.03 µM.
`O=C1C=C(N2C(=O)C3(CCN(C[C@H](O)c4ccc(-n5cnnn5)nc4)CC3)CC2C2CC2)CO1` (mixture of isomers) [Example 215, 3-cyclopropyl-8-{(2R)-2-hydroxy-2-[6-(1H-tetrazol-1-yl)pyridin-3-yl]ethyl}-2-(5-oxo-2,5-dihydrofuran-3-yl)-2,8-diazaspiro[4.5]decan-1-one] gave an IC50 of 0.03 µM.
With `CCC1CC2(CCN(C[C@H](O)c3ccc(-n4cnnn4)nc3)CC2)C(=O)N1C1=CC(=O)OC1` (mixture of isomers) [Example 218, 3-ethyl-8-{(2R)-2-hydroxy-2-[6-(1H-tetrazol-1-yl)pyridin-3-yl]ethyl}-2-(5-oxo-2,5-dihydrofuran-3-yl)-2,8-diazaspiro[4.5]decan-1-one] the IC50 was 0.01 µM.
For `CCC1CC2(CCN(C[C@H](O)c3ccc(-n4cnnn4)nc3)CC2)C(=O)N1C1=CC(=O)OC1` (mixture of isomers) [Example 219, 3-ethyl-8-{(2R)-2-hydroxy-2-[6-(1H-tetrazol-1-yl)pyridin-3-yl]ethyl}-2-(5-oxo-2,5-dihydrofuran-3-yl)-2,8-diazaspiro[4.5]decan-1-one], the IC50 was 0.01 µM.
`CCC1CC2(CCN(C[C@H](O)c3cnc(-n4cnnn4)cn3)CC2)C(=O)N1C1=CC(=O)OC1` (mixture of isomers) [Example 220, 3-ethyl-8-{(2S)-2-hydroxy-2-[5-(1H-tetrazol-1-yl)pyrazin-2-yl]ethyl}-2-(5-oxo-2,5-dihydrofuran-3-yl)-2,8-diazaspiro[4.5]decan-1-one] gave an IC50 of 0.04 µM.
